Measurements: US8729115B2 (Cardiolynx AG, priority 2010, dated 2014)
Where two headings read alike, the source gives them in different places.

Key:
[1] = test system: isolated rat cardiac mitochondria; test: ROS/RONS formation in isolated mitochondria (L-012 chemiluminescence)
Excerpt: Reactive oxygen and nitrogen species formation in response to in vitro challenge of isolated rat cardiac mitochondria based on reaction of the chemiluminescence dye L-012 (a luminal analogue), Example 4, Table 2. X-axis: compounds tested with concentration [μM]; y-axis: photons n per 30 sec of emission of chemiluminescence light (ECL).
Vascular oxidative stress is a well-known side effect of nitrate tolerance (an adverse condition that develops under chronic nitrate therapy). Therefore, the induction of reactive oxygen and nitrogen species formation in response to in vitro challenges with the test compounds was assessed in isolated mitochondria according to a published procedure [Daiber, A. et al., Mol Pharmacol 66 (2004), 1372-1382; Daiber, A. et al., Biochem Biophys Res Commun 338 (2005), 1865-1874; Daiber, A. et al., Mol Pharmacol 68 (2005), 579-588]. The assay is based on the reaction of the chemiluminescence dye L-012 (a luminol analogue) with reactive oxygen and nitrogen species (RONS, e.g. superoxide anion radicals, peroxynitrite anions or nitrogen dioxide radicals) and subsequent emission of chemiluminescence light (ECL). The signal is counted in photons/time (=counts/30 s). The data are based on experiments with cardiac mitochondria from at least 6 rats on 3 different days.

rat aortic ring segments = test: Isometric tension: vasodilation of rat aortic ring segments preconstricted with phenylephrine; assay type: cell-based; conditions: for EC50 / pD2-value (vasodilatory potency): concentration-relaxation curve; for EC50 / Vasodilatory potency (in words) / pD2-value (vasodilatory potency): phenylephrine-preconstricted rat aorta; for EC50: read-out: pD2-value (vasodilatory potency) (converted)
Method: Vasodilation of rat aortic ring segments preconstricted with phenylephrine, Example 3, Table 1. […].
After reaching a stable preconstriction of vascular tone, the vessels were dose-dependently vasodilated until the final tone at the highest added concentration of the vasodilator was reached. The vasodilators were added at half-logarithmic concentrations starting at 10^−8 M (=10 nanomolar). Vasodilatory potency was compared creating a concentration-relaxation curve. The data are based on experiments with aorta from at least 6 rats on 3 different days.

Wistar rats = test: Endothelial dysfunction, in vivo tolerance and cross-tolerance after 7 days treatment; parameters: species or system rat
Method: To assess the tendency of a given organic nitrate to induce in vivo tolerance and endothelial dysfunction, Wistar rats were treated for 7 days with placebo (solvent alone) or 3 increasing doses of the organic nitrate. […] Vascular function was assessed by isometric tension studies as described above. Acetylcholine (ACh) is an endothelium-dependent vasodilator whereas organic nitrates (e.g. compound 1 or nitroglycerin) are endothelium-independent vasodilators. Endothelial dysfunction will result in impaired ACh-dependent relaxation whereas nitrate tolerance and/or vascular dysfunction causes impaired compound 1 dependent or nitroglycerin dependent vasodilation.

Beagle dogs = test: Effects on blood pressure in Beagle dogs; assay type: in vivo, dog
Method: Each group was administered three ascending doses separated by 4 wash out days providing 9 different treatments as shown in the following table:
The liquid was administered per gavage. […] The capsule was administered orally.
In this group the liquid was administered intravenously as a slow bolus injection.
Blood pressure was assessed for all treatments before dosing and 1, 2, 3, 4, 5, 6, 8, 12 and 24 h after dosing.

[2] = 10-1000 μM, isolated mitochondria

Molecule | Effect on RONS signal / in vitro oxidative stress (in words) [1, 2] | ROS formation, Mean (ECL signal) ([1]; Conc. 10 μM) [counts/30 s] | ROS formation, Mean (ECL signal) ([1]; Conc. 100 μM) [counts/30 s] | ROS formation, Mean (ECL signal) ([1]; Conc. 1000 μM) [counts/30 s] | Isometric tension, relaxation (Mean ± SEM) (rat aortic ring segments; Log [M] −3.5) [%] | Isometric tension, relaxation (Mean ± SEM) (rat aortic ring segments; Log [M] −4) [%] | Isometric tension, relaxation (Mean ± SEM) (rat aortic ring segments; Log [M] −4.5) [%] | Isometric tension, relaxation (Mean ± SEM) (rat aortic ring segments; Log [M] −5) [%] | Isometric tension, relaxation (Mean ± SEM) (rat aortic ring segments; Log [M] −5.5) [%] | Isometric tension, relaxation (Mean ± SEM) (rat aortic ring segments; Log [M] −6) [%] | Isometric tension, relaxation (Mean ± SEM) (rat aortic ring segments; Log [M] −6.5) [%] | Isometric tension, relaxation (Mean ± SEM) (rat aortic ring segments; Log [M] −7) [%] | Isometric tension, relaxation (Mean ± SEM) (rat aortic ring segments; Log [M] −7.5) [%] | EC50 (rat aortic ring segments) [µM] | Vasodilatory potency (in words) (rat aortic ring segments) | ROS formation, Mean (ECL signal) ([1]; rat, 10 μM) [counts/30 s] | ROS formation, Mean (ECL signal) ([1]; rat, 100 μM) [counts/30 s] | ROS formation, Mean (ECL signal) ([1]; rat, 1000 μM) [counts/30 s] | Isometric tension, relaxation (Mean ± SEM) (rat aortic ring segments; Log [M] −3) [%] | pD2-value (vasodilatory potency) (rat aortic ring segments) | also measured
O=[N+]([O-])O[C@H]1CO[C@H]2[C@@H]1OC[C@H]2O[N+](=O)[O-] [ISDN, Isosorbide dinitrate] | increases the RONS signal in a concentration-dependent fashion, although only slightly | 5718.33 | 6608.83 | 8744.83 |  |  |  |  |  |  |  |  |  |  |  |  |  |  |  |  | 
CCCCC(=O)N(Cc1ccc(-c2ccccc2-c2nnn[nH]2)cc1)[C@H](C(=O)O)C(C)C [compound 3, Valsartan] |  |  |  |  | 21.98 ± 3.75 | 9.43 ± 2.03 | 4.94 ± 2.65 | 0.29 ± 2.56 | −0.58 ± 3.84 | 1.05 ± 3.85 | 0.87 ± 2.97 | 1.64 ± 3.06 | 4.25 ± 2.13 | < 1000 | weak relaxing effects | 2971.58 | 2871.29 | 9878.96 |  |  | 
CNCCCCO[N+](=O)[O-].O=[N+]([O-])O [MNBAN, N-Methyl-N-(4-nitroxybutyl)ammonium nitrate] |  |  |  |  | 88.56 ± 2.69 | 74.46 ± 4.13 | 50.81 ± 6.88 | 30.56 ± 7.29 | 14.85 ± 5.75 | 8.33 ± 4.85 | 5.04 ± 3.29 | 3.24 ± 2.80 | 1.72 ± 1.50 | ~31.6 | intermediate vasodilatory potency |  |  |  | 95.84 ± 2.26 |  | Effect on RONS signal / in vitro oxidative stress (in words) [1]: somewhat more pronounced effects on RONS formation
CCCCC(=O)N(Cc1ccc(-c2ccccc2-c2nnn[nH]2)cc1)C(C(=O)N(C)CCCCO[N+](=O)[O-])C(C)C [compound 2, (2R)-3-Methyl-2-(N-((2′-(1H-tetrazol-5-yl)biphenyl-4-yl)methyl)pentanamido)-butanoyl N-methyl-N-4-nitroxybutyl-amide] |  |  |  |  | 50.40 ± 7.89 | 31.38 ± 6.92 | 13.69 ± 3.68 | 8.61 ± 2.77 | 8.56 ± 2.18 | 7.43 ± 1.86 | 6.06 ± 1.69 | 4.61 ± 1.19 | 2.45 ± 0.93 | < 100 |  | 9007.83 | 4532.33 | 4386.00 |  |  | 
O=[N+]([O-])OCCCCO [HBN, 1-Hydroxy-4-butyl nitrate] | somewhat more pronounced effects on RONS formation | 5116.17 | 3005.75 | 10472.33 | 95.69 ± 2.40 | 77.74 ± 3.73 | 55.15 ± 5.33 | 34.50 ± 4.63 | 15.21 ± 4.71 | 7.11 ± 2.87 | 3.24 ± 2.77 | 1.42 ± 2.55 | 1.84 ± 1.72 |  | intermediate vasodilatory potency |  |  |  | 95.71 ± 1.27 | approximately 4.5 | 
(2R)-3-Methyl-2-(N-((2′-(1-(2″-nitroxyethylaminocarbonyloxymethyl)-1H-tetrazol-5-yl)biphenyl-4-yl)methyl)pentanamido)butanoyl N-methyl-N-4-nitroxybutyl-amide 1A and the corresponding 2-(2″-nitroxyethylaminocarbonyloxymethyl)-2H-tetrazol-5-yl isomer 1B [compound 1] |  | 6820.33 | 4534.00 | 5088.33 | 91.52 ± 3.83 | 88.20 ± 5.11 | 81.43 ± 6.54 | 59.97 ± 6.28 | 43.47 ± 5.88 | 27.39 ± 4.09 | 14.66 ± 2.59 | 8.52 ± 1.64 | 4.64 ± 0.93 |  |  |  |  |  |  | approximately 5.5 | Vasodilatory potency (in words) (rat aortic ring segments; listed as Valsartan dinitrate 1): as potent as isosorbide dinitrate; Vasodilatory potency (in words) (rat aortic ring segments; listed as valsartan dinitrate 1): as active as isosorbide dinitrate; Adverse effects on endothelial or vascular function, in vivo tolerance or cross tolerance (Wistar rats; low and middle dose): did not show any significant adverse effects on endothelial or vascular function; Toxic effects (Wistar rats; up to the highest dose): not show any toxic effects; Blood pressure lowering effect (in words) (Beagle dogs; gavage, oral capsule or intravenous, ascending doses): two sequential lowerings of blood pressure; Duration of effect on blood pressure (Beagle dogs; overall): at least 10 hours; Blood pressure lowering observed up to (Beagle dogs; several animals): up to 24 hours; Effect on RONS signal / in vitro oxidative stress (in words) ([1]; 10-1000 μM, isolated mitochondria, listed as dinitrate 1): RONS signal is suppressed at higher concentrations; Effect on RONS signal / in vitro oxidative stress (in words) ([1]; 10-1000 μM, isolated mitochondria, listed as valsartan dinitrate 1): does not induce in vitro oxidative stress in isolated mitochondria
